Results as given in US4415566A, “Cephalosporin derivatives” (Boehringer Ingelheim GmbH, priority 1979, dated 1983).
Values after ≈ are worked out from the molar mass of the structure shown. Read-outs that look alike come from different tables or passages of the source.

Tests used:
[1] = tested on: Proteus rettgeri; assay: Serial dilution test in the microtiter system (MIC), Prot. rettgeri; format: cell-based; conditions: Providencia rettgeri
Description: (§1) These tests were performed according to the method of the serial dilution test in the microtiter system. The effect of the substances on bacteriostasis was examined in a fluid medium. […] A nutrient medium of the following composition was used. 10 gm of peptone, 8 gm of meat extract-oxoid, 3 gm of sodium chloride, 2 gm of sec. sodium phosphate were diluted with distilled water to […] (pH 7.2-7.4). Only in the test against streptococci 1% of glucose was added. The age of the primary cultures was about 20 hours. The standardization of the pathogen suspension was effected by using a photometer according to "Eppendorf" (test tube dismeter 14 mm, filter 546 nm) with the aid of the turbidity of a comparison suspension consisting of barium sulfate, this suspension being prepared by addition of 3.0 ml of 1% barium chloride solution to 97 ml of 1% sulfuric acid. After the standardization, streptococcus aronson were further diluted to a concentration of 1:15 and the other microorganisms to a concentration of 1:1500 by means of a sodium chloride solution.
(§2) 16 mg of the test substance were put into a 10 ml-measuring flask and filled up to the mark with the solvent. The further dilution series was standardized with distilled water or the respective solvent.
(§3) The cavities of the microtiter plates were filled with 0.2 ml of nutrient medium. Then, 0.01 ml of the corresponding test substance dilution was added and inoculated with 0.01 ml of the standardized suspension. The bacteria were incubated at 37° C. for 18-20 hours. Control tests merely using the solvent were carried out simultaneously.
(§4) The measurement was carried out macroscopically to determine the minimal inhibitory (threshold) concentration, i.e. the lower still bacteriostatically effective concentration.
(§5) Staphylococcus aureus SG 511, Escherichia coli ATCC 11 775, Pseudomonas aeruginosa Hamburgensis and Pseudomonas aeruginosa Walter, Serratia marcescens ATCC 13880, Klebsiella pneumoniae ATCC 10 031 and 272, Proteus mirabilis Hamburgensis, Proteus rettgeri, Enterbacter cloaceae ATCC 13 047 and E. Coli R+TEM (β-lactamase carrier).

[2] = tested on: E. Coli ATCC 9637; assay: Serial dilution test in the microtiter system (MIC), E. Coli ATCC 9637; format: cell-based; conditions: Escherichia coli, ATCC9637
[3] = tested on: Enterbacter cloaceae ATCC 13 047; assay: Serial dilution test in the microtiter system (MIC), Eb. cloaceae ATCC 13047; format: cell-based
Description: as §1, §2, §3, §4, §5

[4] = tested on: Proteus mirabilis Hamburgensis; assay: Serial dilution test in the microtiter system (MIC), Prot. mirabilis; format: cell-based
Description: as §1, §2, §3, §4, §5

[5] = tested on: Escherichia coli ATCC 11 775; assay: Serial dilution test in the microtiter system (MIC), E. Coli ATCC 11775; format: cell-based
Description: as §1, §2, §3, §4, §5

[6] = tested on: Serratia marcescens ATCC 13880; assay: Serial dilution test in the microtiter system (MIC), Serrat. marcesc. ATCC 13880; format: cell-based
Description: as §1, §2, §3, §4, §5

[7] = tested on: Klebsiella pneumoniae ATCC 10 031; assay: Serial dilution test in the microtiter system (MIC), Klebs. pneum. ATCC 10031; format: cell-based
Description: as §1, §2, §3, §4, §5

[8] = tested on: Pseudomonas aeruginosa Hamburgensis; assay: Serial dilution test in the microtiter system (MIC), Pseud. aerug. Hbg.; format: cell-based
Description: as §1, §2, §3, §4, §5

[9] = tested on: Pseudomonas aeruginosa Walter; assay: Serial dilution test in the microtiter system (MIC), Pseud. aerug. Walter; format: cell-based
Description: as §1, §2, §3, §4, §5

[10] = tested on: Klebsiella pneumoniae 272; assay: Serial dilution test in the microtiter system (MIC), Klebs. pneum. 272; format: cell-based
Description: as §1, §2, §3, §4, §5

[11] = tested on: E. coli ATCC 11775; assay: In vivo activity in mice, E. coli infection; parameters: species or system Female NMRI mice; conditions: Escherichia coli, ATCC11775, iPSC, sc, 168 h; E. coli infection i.p.; s.c. administration; per dose; observation 7 days; read-out: ED50 (dose at which 50% of the animals survived)
Description: (§6) A number of compounds of this invention were tested in vivo in mice against experimental infections. Bacteria E. coli ATCC 11775 and Psuedomonas aeruginosa Walter were used as pathogens. An intraperitoneal infection with 0.2 ml of a 5% suspension of the bacteria was induced. This corresponds to about 2×10^6 E. Coli germs and 8×10^5 pseudomonas germs/mouse. […] The groups with E. coli infection were treated with the test compound three times on the first day (1, 4, and 7 hours post infectionem) and for two days thereafter twice a day. The groups with the pseudomonas infection were treated with the test compound 6 times on the first day (1, 3, 6, 9, 12 and 15 hours post infectionem) and for two days thereafter twice a day. The observation time was in both cases 7 days. The results of these tests with representatives of the penicillins and cephalosporins according to the invention are shown in the following table: […]

[12] = tested on: Psuedomonas aeruginosa Walter; assay: In vivo activity in mice, Pseudomonas infection; parameters: species or system Female NMRI mice; conditions: Mus musculus, iPSC, sc, 168 h; Pseudomonas infection i.p.; s.c. administration; per dose; observation 7 days; read-out: ED50 (dose at which 50% of the animals survived)
Description: as §6

[13] = tested on: Staphylococcus aureus SG 511; assay: Serial dilution test in the microtiter system (MIC), S. aureus SG 511; format: cell-based; conditions: SG511, Table IV, S. aureus SG 511, 37° C., 18-20 hours, read-out: MIC
Description: as §1, §2, §3, §4, §5

[14] = Table III, Prot. rettgeri, 37° C., 18-20 hours, read-out: MIC
[15] = Table III, E. Coli ATCC 9637, 37° C., 18-20 hours, read-out: MIC
[16] = Table III, Prot. mirabilis, 37° C., 18-20 hours, read-out: MIC
[17] = Table III, E. Coli ATCC 11775, 37° C., 18-20 hours, read-out: MIC
[18] = ATCC13880, Table III, Serrat. marcesc. ATCC 13880, 37° C., 18-20 hours, read-out: MIC
[19] = Table III, Pseud. aerug. Hbg., 37° C., 18-20 hours, read-out: MIC
[20] = Table III, Pseud. aerug. Walter, 37° C., 18-20 hours, read-out: MIC
[21] = Table III, Eb. cloaceae ATCC 13047, 37° C., 18-20 hours, read-out: MIC
[22] = Table III, Klebs. pneum. 272, 37° C., 18-20 hours, read-out: MIC

## CC1(C)S[C@@H]2[C@H](NC(=O)[C@H](NC(=O)Nc3cnc(Nc4ccc(S(C)(=O)=O)nc4)nc3O)c3ccc(O)cc3)C(=O)N2[C@H]1C(=O)O [Compound E, D-α-{3-[4-Hydroxy-2-(6'-methylsulfonyl-3'-pyridylamino)-5-pyrimidinyl]-ureido}-p-hydroxy-benzyl-penicillin sodium]
[1]; [14]
  MIC: 0.25 µg/mL
[2]; [15]
  MIC: 0.2 µg/mL
[3]
  MIC: 2 µg/mL
[4]; [16]
  MIC: 0.06 µg/mL
[5]; [17]
  MIC: 0.2 µg/mL
[6]; [18]
  MIC: 0.2 µg/mL
[7]
  MIC: 2 µg/mL
[8]; [19]
  MIC: 1 µg/mL
[9]; [20]
  MIC: 1 µg/mL
[10]; 272
  MIC: 2 µg/mL

## CC1(C)S[C@@H]2[C@H](NC(=O)[C@H](NC(=O)Nc3cnc(Nc4ccc(C(N)=O)s4)nc3O)c3ccc(O)cc3)C(=O)N2[C@H]1C(=O)O [B, D-α-{3-[2-(5'-Aminocarbonyl-2'-thienylamino)-4-hydroxy-5-pyrimidinyl]-ureido}-p-hydroxy-benzyl-penicillin sodium]
[1]; [14]
  MIC: 0.5 µg/mL
[2]; [15]
  MIC: 0.5 µg/mL
[3]
  MIC: 2 µg/mL
[4]; [16]
  MIC: 0.06 µg/mL
[5]
  MIC: 0.25 µg/mL
[6]; [18]
  MIC: 0.2 µg/mL
[7]
  MIC: 2 µg/mL
[11]
  ED50: 1.3 mg/kg
[8]; [19]
  MIC: 1 µg/mL
[9]; [20]
  MIC: 1 µg/mL
[10]; 272
  MIC: 2 µg/mL
[12]
  ED50: 4.8 mg/kg

## CC1(C)S[C@@H]2[C@H](NC(=O)[C@H](NC(=O)Nc3cnc(NCc4cccs4)nc3O)c3ccc(O)cc3)C(=O)N2[C@H]1C(=O)O [C, D-α-{3-[4-Hydroxy-2-(2'-thienylmethylamino)-5-pyrimidinyl]-ureido}-p-hydroxy-benzyl-penicillin sodium]
[1]
  MIC: 0.12 µg/mL
[2]
  MIC: 0.5 µg/mL
[3]; [21]
  MIC: 0.5 µg/mL
[4]
  MIC: 0.25 µg/mL
[5]; [17]
  MIC: 0.5 µg/mL
[6]; [18]
  MIC: 0.5 µg/mL
[7]
  MIC: 2 µg/mL
[11]
  ED50: 0.8 mg/kg
[8]
  MIC: 2 µg/mL
[9]
  MIC: 1 µg/mL
[10]; 272
  MIC: 2 µg/mL
[12]
  ED50: 2.5 mg/kg

## CC1(C)S[C@@H]2[C@H](NC(=O)[C@H](NC(=O)Nc3cnc(NCc4ccco4)nc3O)c3ccc(O)cc3)C(=O)N2[C@H]1C(=O)O [D, D-α-{3-[4-Hydroxy-2-(2'-furylmethylamino)-5-pyrimidinyl]-ureido}-p-hydroxy-benzyl-penicillin sodium]
[1]; [14]
  MIC: 0.5 µg/mL
[2]; [15]
  MIC: 0.5 µg/mL
[3]
  MIC: 4 µg/mL
[4]
  MIC: 0.25 µg/mL
[5]
  MIC: 1 µg/mL
[6]; [18]
  MIC: 0.5 µg/mL
[7]
  MIC: 4 µg/mL
[11]
  ED50: 0.8 mg/kg
[8]; [19]
  MIC: 1 µg/mL
[9]
  MIC: 2 µg/mL
[10]; [22]
  MIC: 8 µg/mL
[12]
  ED50: 1.5 mg/kg

## CC1(C)S[C@@H]2[C@H](NC(=O)[C@H](NC(=O)N3CCNC3=O)c3ccccc3)C(=O)N2[C@H]1C(=O)O [Azlocillin, reference compound]
[1]
  MIC: 8 µg/mL (≈ 17.3 µM)
[2]; [15]
  MIC: 16 µg/mL (≈ 34.7 µM)
[3]; [21]
  MIC: 32 µg/mL (≈ 69.3 µM)
[4]
  MIC: 2 µg/mL (≈ 4.33 µM)
[5]
  MIC: 8 µg/mL (≈ 17.3 µM)
[6]; ATCC13880
  MIC: 4 µg/mL (≈ 8.67 µM)
[7]; Table III, Klebs. pneum. ATCC 10031, 37° C., 18-20 hours, read-out: MIC
  MIC: 32 µg/mL (≈ 69.3 µM)
[11]
  ED50: ~35 mg/kg
[8]
  MIC: 8 µg/mL (≈ 17.3 µM)
[9]
  MIC: 8 µg/mL (≈ 17.3 µM)
[10]; [22]
  MIC: 32 µg/mL (≈ 69.3 µM)
[12]
  ED50: ~110 mg/kg

## Cc1nnc(SCC2=C(C(=O)O)N3C(=O)[C@@H](NC(=O)Cn4cnnn4)[C@H]3SC2)s1 [Cephazolin, reference compound]
[13]
  MIC: 0.06 µg/mL (≈ 0.132 µM)
[4]
  MIC: 4 µg/mL (≈ 8.8 µM)
[5]
  MIC: 4 µg/mL (≈ 8.8 µM)
[7]; Table IV, Klebs. pneum. ATCC 10031, 37° C., 18-20 hours, read-out: MIC
  MIC: 1 µg/mL (≈ 2.2 µM)
[10]; 272
  MIC: 2 µg/mL (≈ 4.4 µM)
